ChEMBL document CHEMBL1147313, “Abrusosides A-D, four novel sweet-tasting triterpene glycosides from the leaves of Abrus precatorius” (J Nat Prod, 1989)

Test system: Mus musculus
Test: Acute toxicity in Swiss-Webster mouse at 1 g/kg, po
Assay type: organism-based
Conditions: in vivo, 1000 mg/kg

| SMILES | Activity |
| --- | --- |
| CC1=CC[C@@H]([C@@H](C)[C@H]2CC[C@@]3(C)[C@@H]4CC[C@H]5[C@](C)(C(=O)O)[C@@H](O[C@@H]6O[C@H](CO)[C@@H](O)[C@H](O)[C@H]6O)CC[C@@]56C[C@@]46CC[C@]23C)OC1=O [ABRUSOSIDE A] | Non-toxic |
| COC(=O)[C@H]1O[C@@H](O[C@H]2[C@H](O[C@H]3CC[C@]45C[C@]46CC[C@]4(C)[C@@H]([C@H](C)[C@@H]7CC=C(C)C(=O)O7)CC[C@@]4(C)[C@@H]6CC[C@H]5[C@]3(C)C(=O)O)O[C@H](CO)[C@@H](O)[C@@H]2O)[C@H](O)[C@@H](O)[C@@H]1O [ABRUSOSIDE B] | Non-toxic |
| CC1=CC[C@@H]([C@@H](C)[C@H]2CC[C@@]3(C)[C@@H]4CC[C@H]5[C@](C)(C(=O)O)[C@@H](O[C@@H]6O[C@H](CO)[C@@H](O)[C@H](O)[C@H]6O[C@@H]6O[C@H](CO)[C@@H](O)[C@H](O)[C@H]6O)CC[C@@]56C[C@@]46CC[C@]23C)OC1=O [ABRUSOSIDE C] | Non-toxic |
| CC1=CC[C@@H]([C@@H](C)[C@H]2CC[C@@]3(C)[C@@H]4CC[C@H]5[C@](C)(C(=O)O)[C@@H](O[C@@H]6O[C@H](CO)[C@@H](O)[C@H](O)[C@H]6O[C@@H]6O[C@H](C(=O)O)[C@@H](O)[C@H](O)[C@H]6O)CC[C@@]56C[C@@]46CC[C@]23C)OC1=O [ABRUSOSIDE D] | Non-toxic |
